The supplement of paper PMC10307832

Key:
Assay in all cases: relative viability (nuclei count vs DMSO), 5 days (fraction); higher = more cells survive
Sunitinib + Trametinib = compound: CCN(CC)CCNC(=O)c1c(C)[nH]c(/C=C2\C(=O)Nc3ccc(F)cc32)c1C [Sunitinib] + CC(=O)Nc1cccc(-n2c(=O)n(C3CC3)c(=O)c3c(Nc4ccc(I)cc4F)n(C)c(=O)c(C)c32)c1 [Trametinib] (partner 0.02 µM)
In short: (§1)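 Relative viability divides the nuclei count in treated wells by that in vehicle wells. Lung cancer cell lines were seeded in 1536-well plates, dosed by pin tool the next day, and fixed and stained after 5 days in one step with final 0.05% Triton X-100, 1% formaldehyde and 1 ug/ml Hoechst. Dosing was a single drug or a fixed anchor-drug dose plus five library-drug doses (not always all listed) in √10 steps, and values are medians of duplicate plates imaged at 4×.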

Sunitinib + Bortezomib = compound: CCN(CC)CCNC(=O)c1c(C)[nH]c(/C=C2\C(=O)Nc3ccc(F)cc32)c1C [Sunitinib] + CC(C)C[C@H](NC(=O)[C@H](Cc1ccccc1)NC(=O)c1cnccn1)B(O)O [Bortezomib] (partner 0.002 µM)
In short: as §1

Sunitinib + Pictilisib = compound: CCN(CC)CCNC(=O)c1c(C)[nH]c(/C=C2\C(=O)Nc3ccc(F)cc32)c1C [Sunitinib] + CS(=O)(=O)N1CCN(Cc2cc3nc(-c4cccc5[nH]ncc45)nc(N4CCOCC4)c3s2)CC1 [Pictilisib] (partner 1 µM)
In short: as §1

Sunitinib + Olaparib = compound: CCN(CC)CCNC(=O)c1c(C)[nH]c(/C=C2\C(=O)Nc3ccc(F)cc32)c1C [Sunitinib] + O=C(c1cc(Cc2n[nH]c(=O)c3ccccc23)ccc1F)N1CCN(C(=O)C2CC2)CC1 [Olaparib] (partner 8 µM)
In short: as §1

| Cell Line | relative viability (Sunitinib + Trametinib; first compound 0.02 µM) | relative viability (Sunitinib + Trametinib; first compound 0.06325 µM) | relative viability (Sunitinib + Trametinib; first compound 0.2 µM) | relative viability (Sunitinib + Trametinib; first compound 0.6325 µM) | relative viability (Sunitinib + Trametinib; first compound 2 µM) | relative viability (Sunitinib + Bortezomib; first compound 0.02 µM) | relative viability (Sunitinib + Bortezomib; first compound 0.06325 µM) | relative viability (Sunitinib + Bortezomib; first compound 0.2 µM) | relative viability (Sunitinib + Bortezomib; first compound 0.6325 µM) | relative viability (Sunitinib + Bortezomib; first compound 2 µM) | relative viability (Sunitinib + Pictilisib; first compound 0.02 µM) | relative viability (Sunitinib + Pictilisib; first compound 0.06325 µM) | relative viability (Sunitinib + Pictilisib; first compound 0.2 µM) | relative viability (Sunitinib + Pictilisib; first compound 0.6325 µM) | relative viability (Sunitinib + Pictilisib; first compound 2 µM) | relative viability (Sunitinib + Olaparib; first compound 0.02 µM) | relative viability (Sunitinib + Olaparib; first compound 0.06325 µM) | relative viability (Sunitinib + Olaparib; first compound 0.2 µM) | relative viability (Sunitinib + Olaparib; first compound 0.6325 µM) | relative viability (Sunitinib + Olaparib; first compound 2 µM) |
| --- | --- | --- | --- | --- | --- | --- | --- | --- | --- | --- | --- | --- | --- | --- | --- | --- | --- | --- | --- | --- |
| LCLC-103H | 0.612 | 0.692 | 0.629 | 0.728 | 0.719 | 1.11 | 1.19 | 1.2 | 1.04 | 1.18 | 0.558 | 0.649 | 0.643 | 0.614 | 0.536 | 0.69 | 0.839 | 0.787 | 0.75 | 0.817 |
| LOU-NH91 | 0.791 | 0.811 | 0.844 | 0.823 | 0.787 | 0.586 | 0.48 | 0.463 | 0.426 | 0.494 | 0.525 | 0.537 | 0.533 | 0.556 | 0.53 | 0.899 | 0.903 | 1.01 | 1.05 | 0.875 |
| LU99A | 0.477 | 0.562 | 0.554 | 0.552 | 0.424 | 1 | 1.13 | 1.15 | 1.35 | 1.12 | 0.308 | 0.352 | 0.282 | 0.317 | 0.313 | 0.267 | 0.27 | 0.271 | 0.321 | 0.295 |
| LXF-289 | 0.621 | 0.714 | 0.679 | 0.728 | 0.689 | 0.981 | 0.958 | 1.06 | 1.04 | 1.01 | 0.743 | 0.874 | 0.868 | 0.786 | 0.881 | 1.03 | 1.06 | 1.2 | 1.11 | 1.12 |
| NCI-H23 | 0.345 | 0.348 | 0.334 | 0.391 | 0.351 | 0.871 | 1.45 | 1.17 | 1.44 | 0.945 | 0.498 | 0.594 | 0.483 | 0.468 | 0.504 | 0.353 | 0.28 | 0.307 | 0.312 | 0.307 |
| NCI-H322M | 0.536 | 0.516 | 0.554 | 0.477 | 0.525 | 1.19 | 1.35 | 1.52 | 1.42 | 1.35 | 0.497 | 0.553 | 0.582 | 0.511 | 0.474 | 0.83 | 0.771 | 0.798 | 0.802 | 0.745 |
| NCI-H441 | 0.432 | 0.581 | 0.518 | 0.524 | 0.409 |  | 1.05 | 0.533 | 0.281 | 0.558 | 0.431 | 0.546 | 0.48 | 0.476 | 0.428 | 0.481 | 0.557 | 0.796 | 0.659 | 0.61 |
| NCI-H460 | 0.104 | 0.185 | 0.226 | 0.287 | 0.191 | 1.18 | 1.23 | 1.5 | 1.35 | 1.09 | 0.323 | 0.19 | 0.441 | 0.366 | 0.304 | 0.41 | 0.484 | 0.614 | 0.473 | 0.578 |
| NCI-H520 | 0.657 | 0.813 | 0.727 | 0.772 | 0.601 | 0.738 | 0.785 | 0.638 | 0.783 | 0.819 | 0.244 | 0.32 | 0.348 | 0.278 | 0.273 | 0.395 | 0.338 | 0.314 | 0.377 | 0.335 |
| NCI-H596 | 0.762 | 0.86 | 0.723 |  | 1.02 | 0.996 | 1.16 | 0.999 | 1.08 | 1.33 | 0.376 | 0.392 | 0.428 | 0.394 | 0.434 | 0.688 | 0.678 | 0.679 | 0.686 | 0.651 |
| NCI-H647 | 0.367 | 0.479 | 0.547 | 0.426 | 0.408 | 0.936 | 1.29 | 1.4 | 1.03 | 0.923 | 0.302 | 0.381 |  | 0.373 | 0.454 | 0.536 | 0.517 | 0.655 | 0.639 | 0.396 |
| NCI-H650 | 0.917 | 1.04 | 1.16 | 0.988 | 1.01 | 0.884 | 0.819 | 0.916 | 1.03 | 1.09 | 0.828 | 1.09 | 0.932 | 0.858 | 0.843 | 0.399 | 0.405 | 0.39 | 0.445 | 0.384 |
| NCI-H661 | 0.513 | 0.597 | 0.703 | 0.63 | 0.649 |  | 0.77 | 0.801 | 1 | 0.87 | 0.385 | 0.362 | 0.368 | 0.319 | 0.441 | 0.716 | 0.739 | 0.733 | 0.711 | 0.773 |
| NCI-H727 | 0.409 | 0.412 | 0.412 | 0.396 | 0.367 | 0.89 | 1.07 | 0.805 | 1.05 | 0.817 | 0.278 | 0.417 | 0.542 | 0.325 | 0.344 | 0.747 | 0.649 | 0.717 | 0.593 | 0.778 |
| NCI-H838 | 0.473 | 0.558 | 0.647 | 0.534 | 0.489 | 0.831 | 1.04 | 0.914 | 0.859 | 0.744 | 0.409 | 0.499 | 0.506 | 0.487 | 0.361 | 0.757 | 0.766 | 0.812 | 0.731 | 0.58 |
| NCI-H1355 | 0.44 | 0.438 | 0.567 | 0.437 | 0.376 | 1.2 | 1.31 | 1.28 | 1.2 | 1.27 | 0.431 | 0.448 | 0.477 | 0.399 | 0.447 | 0.786 | 0.812 | 0.904 | 0.818 | 0.712 |
